Read-outs that look alike come from different tables or passages of the source. Blank lines part the entries; values can stand above or below the compound they belong to.
Experiments:
[1] = test system: A431 line human epidermoid carcinoma cells; assay: Proliferative activity and death of A431 cells (cell count, propidium iodide flow cytofluorimetry); assay type: cell-based; conditions: for Proportion of dead cells / Total cells: A431; for effect on the proliferative activity of A431 cells (in words): summary of Table 2
Method: The number of living and dead cells in a culture was determined after 24 and 48 hours.
A431 line human epidermoid carcinoma cells, obtained from the All-Russian Cell Culture Collection (Russian Academy of Sciences Institute of Cytology, St. Petersburg).
Cells are cultured in a CO2 incubator (New Brunswick Scientific) at +37° C. and with a CO2 content of 5%. Cells are grown in these conditions to a monolayer culture and are exposed to the action of the test compounds.
The DMEM medium (OOO PanEko, Moscow) with the addition of gentamicin K (80 mg/l), L-glutamine (300 mg/l) and fetal serum (PAA, Austria) to a final concentration of 10%, is used for culturing cells. Cells are transferred to a medium with a reduced serum content of 0.5% 24 hours before commencing an experiment.
The cells were then suspended by pipetting with an automatic pipette and were combined with the previously collected medium. Samples were centrifuged at room temperature for 5 min at 400 g, the supernatant was removed and the deposit was resuspended in pH 7.4 PBS phosphate-salt buffer.
Propidium iodide was added to a suspension of cells to a concentration of 50 μg/ml 5-10 min before measuring in a Bruker ACR 1000 flow cytofluorimeter. This stain is able to penetrate through a damaged cell membrane, and stained cells are dead.

[2] = test system: A431 line human epidermoid carcinoma cells; assay: as above; assay type: cell-based
[3] = test system: myocardium (30-minute LCA occlusion, 90-minute reperfusion)
Method: The experiments were performed on male Wistar rats weighing 200-300 g (RAMN Rappolovo Breeding Centre, St. Petersburg) and male C57B mice weighing 25-30 g (B&K, Sollentuna, Sweden). The animals were maintained in a 12/12-hour light regime and received standard feed and drinking water ad libitum. All the experiments were conducted in accordance with the “Handbook on the care and use of laboratory animals” (USA National Institute of Health publication No. 85-23) and “Handbook on the experimental (preclinical) study of new pharmacological substances”.
Initial anesthesia of rats was performed by intraperitoneal administration of etaminal sodium (Nembutal) in a single dose of 7 mg/100 g. The experiments were performed with artificial ventilation of the lungs AVL) via a tracheotomy (respiration rate—60/min, respiratory volume—3 ml/100 g of body weight). AVL was carried out with room air using a Vita-1 unit (PO Krasnogvardeyets, St. Petersburg). A breathing valve for small laboratory animals was used, allowing the dead space volume of the apparatus to be reduced and limiting accumulation of carbon dioxide in the flow system of the apparatus. Arterial pressure (AP) was measured during the experiment using a miniature pressure sensor (Baxter, USA) via a heparinized catheter inserted into the left common carotid artery. A median skin incision was made in the neck, with subsequent blunt separation of the tissues with forceps, for access to the trachea and carotid artery. An electrocardiogram (ECG) was recorded in the course of the experiment (Kardiotekhnika-EKG-8, ZAO Inkart, St. Petersburg) with standard leads, using subcutaneous needle electrodes 2 mm in diameter and 25 mm long. At the start of the experiment, the left femoral vein was catheterized for intravenous infusion of Nembutal with the object of maintaining anesthesia and also for the administration of test preparations and, at the end of the experiment, Evans blue.
A previously described method was used to model ischemia-reperfusion of the myocardium. The heart was accessed via a thoracotomy in the fourth intercostal on the left. An L-shaped skin incision was made first, then the large and small pectoral muscles were separated layer by layer with an electrocoagulator, after which the intercostal muscles were separated and the pleura was exposed. The pericardium was then opened by a blunt method and, using the medial edge of the auricula of the left atrium on the left, and the cone of the pulmonary artery on the right, for guidance the location of the common trunk of the LCA was determined, and a polypropylene ligature for this was placed with the aid of an atraumatic needle (6-O, Cardiopoint, CV-301). Removal of the heart from the wound was avoided since, apart from causing mechanical trauma to the heart, such a manipulation inevitably leads to serious disturbances to the hemodynamics.
An occluder was formed in order to create reversible ischemia of the myocardium: the ends of the ligature surrounding the coronary artery were led into the interior of a polyethylene tube 1 mm in diameter and 5-6 cm long (PE 40), after which occlusion of the left coronary artery (LCA) was achieved by moving the tube towards the heart, and reperfusion by moving it in the opposite direction. A clamp was applied to the tube with the object of maintaining occlusion for 30 minutes. The animals were located on a thermostatted operating table during the experiment; during this time, the body temperature of the animal was maintained in the range 37.5±0.5° C.
30-minute occlusion of the LCA with subsequent 90-minute reperfusion was used to create irreversible ischemic-reperfusion damage to the myocardium, which is a test for assessing cardioprotective effects.

[4] = Solubility of the crystalline coordination compound; assay type: physicochemical
Method: [drawing 10] […] (1.811 mmole) of AgNO3, dissolved in the minimum amount of water, are added to a suspension of 300 mg (0.904 mmole) of Pd(2,2′-dipy)Cl2 in 15 ml of water. The mixture is acidified with 0.5 ml of concentrated HNO3, homogenized in an ultrasound bath for 15 min and filtered. […] (0.905 mmole) of L-cysteine (cys), dissolved in the minimum amount of water, are added to the filtrate. The reaction mixture is evaporated in air at room temperature. […] Yield 70-75%.

[5] = AG1478 0.75 μg/ml 15 min before EGF 200 ng/ml, 24 hours
[6] = AG1478 0.75 μg/ml 15 min before EGF 200 ng/ml, 48 hours
[7] = AG1478 1.0 μg/ml 15 min before EGF 200 ng/ml, 24 hours
[8] = AG1478 1.0 μg/ml 15 min before EGF 200 ng/ml, 48 hours
[9] = AG1478 2.5 μg/ml 15 min before EGF 200 ng/ml, 24 hours
[10] = AG1478 2.5 μg/ml 15 min before EGF 200 ng/ml, 48 hours
[11] = AG1478 5.0 μg/ml 15 min before EGF 200 ng/ml, 24 hours
[12] = AG1478 5.0 μg/ml 15 min before EGF 200 ng/ml, 48 hours
[13] = Table 2, age of culture 24 hours, cysteine […], C—Pd […], C—Pd:C […], EGF 200 ng/ml
[14] = Table 2, age of culture 48 hours, cysteine […], C—Pd […], C—Pd:C […], EGF 200 ng/ml
[15] = Table 2, age of culture 0 hours, cysteine […], C—Pd […], C—Pd:C […], EGF 200 ng/ml

Compound: COc1cc2ncnc(Nc3cccc(Cl)c3)c2cc1OC [AG1478, tyrphostin AG 1478]
Proportion of dead cells [1, 5]: 20%
Total cells [1, 5]: 48100 mL⁻¹
Proportion of dead cells [1, 6]: 25%
Total cells [1, 6]: 70800 mL⁻¹
Total cells ([1]; AG1478 1.0 μg/ml 15 min before EGF 200 ng/ml, 0 hours): 10000 mL⁻¹
Proportion of dead cells [1, 7]: 23%
Total cells [1, 7]: 47100 mL⁻¹
Proportion of dead cells [1, 8]: 23%
Total cells [1, 8]: 65700 mL⁻¹
Total cells ([1]; AG1478 2.5 μg/ml 15 min before EGF 200 ng/ml, 0 hours): 10000 mL⁻¹
Proportion of dead cells [1, 9]: 27%
Total cells [1, 9]: 39400 mL⁻¹
Proportion of dead cells [1, 10]: 30%
Total cells [1, 10]: 61100 mL⁻¹
Total cells ([1]; AG1478 5.0 μg/ml 15 min before EGF 200 ng/ml, 0 hours): 10000 mL⁻¹
Proportion of dead cells [1, 11]: 29%
Total cells [1, 11]: 6400 mL⁻¹
Proportion of dead cells [1, 12]: 41%
Total cells [1, 12]: 2100 mL⁻¹
Total cells ([2]; AG1478 0.75 μg/ml 15 min before EGF 200 ng/ml, 0 hours): 10000 mL⁻¹

Compound: N[C@@H](CS)C(=O)O [Cysteine, cysteine]
Proportion of dead cells [1, 13]: 11%
Total cells [1, 13]: 14700 mL⁻¹
Proportion of dead cells [1, 14]: 22%
Total cells [1, 14]: 23500 mL⁻¹
effect on the proliferative activity of A431 cells (in words) [1]: no effect on stimulation of proliferative activity
Total cells [2, 15]: 10000 mL⁻¹

Compound: Nc1ncnc2c1ncn2[C@@H]1O[C@H](CO)[C@@H](O)[C@H]1O [adenosine]
disturbances of the heart rhythm or stopping of the heart ([3]; rat, in vivo): No disturbances of the heart rhythm or stopping of the heart
size of the infarct zone, % of the size of the anatomical risk zone ([3]; rats, adenosine 0.1 μmol/kg i.v. infusion 30 minutes before coronary occlusion (group 1)): 64.7±3.47%
size of the infarct zone, % of the size of the anatomical risk zone ([3]; rats, adenosine 0.25 μmol/kg i.v. 30 minutes before occlusion (group 2)): 63.1±4.31%
size of the infarct zone, % of the size of the anatomical risk zone ([3]; rats, adenosine 0.5 μmol/kg i.v. 30 minutes before occlusion (group 3)): 62.7±4.11%
size of the infarct zone, % of the size of the anatomical risk zone ([3]; rats, adenosine 1.0 μmol/kg i.v. 30 minutes before occlusion (group 4)): 65.1±4.84%
size of the infarct zone, % of the size of the anatomical risk zone ([3]; rats, adenosine 2.5 μmol/kg i.v. 30 minutes before occlusion (group 5)): 60.9±5.10%
size of the infarct zone, % of the size of the anatomical risk zone ([3]; rats, adenosine 5.0 μmol/kg i.v. 30 minutes before occlusion (group 6)): 35.9±3.59%
size of the infarct zone, % of the size of the anatomical risk zone ([3]; rats, adenosine 10.0 μmol/kg i.v. 30 minutes before occlusion (group 7)): 32.7±3.21%
size of the infarct zone, % of the size of the anatomical risk zone ([3]; rats, adenosine 25.0 μmol/kg i.v. 30 minutes before occlusion (group 8)): 28.2±3.43%
size of the infarct zone, % of the size of the anatomical risk zone ([3]; rats, adenosine 50.0 μmol/kg i.v. 30 minutes before occlusion (group 9)): 26.5±2.87%
reduction of the size of the infarct zone compared with the control, factor ([3]; rats, adenosine groups 6-9 (5.0-50.0 μmol/kg), control 63.8±3.32%): 1.5-2.5

solubility ([4]; in acetone): virtually insoluble
solubility ([4]; in dichloromethane): virtually insoluble
solubility ([4]; in ethanol): less soluble
solubility ([4]; in water): readily soluble
Compound: [Pd2(μ-S-L-Cys)(μ-S-L-CysH)(2,2′-dipy)2](NO3)3.4.5H2O [C—Pd]
Proportion of dead cells [1, 13]: 8%
Total cells [1, 13]: 32300 mL⁻¹
Proportion of dead cells [1, 14]: 12%
Total cells [1, 14]: 36100 mL⁻¹
effect on the proliferative activity of A431 cells (in words) [1]: stimulates the proliferative activity
Total cells [2, 15]: 10000 mL⁻¹
